Patent publication US12691100B2, “NMT inhibitor treatment of a senescence-associated disease or disorder of the liver” (Imperial College Innovations Limited, priority 2020, dated 2026)

Legend:
[1] = Liver lipids (Oil Red O) and blood glucose in the same cohort of old mice; type: in vivo, C57BL/6J female mice; conditions: 10 mg/kg i.p.
Method: (§1) For analysis of immune cell composition in whole blood, tail-vein blood was collected 2 days after last treatment. Whole blood was diluted in saline to a volume of […] and ran on a Sysmex XE2100 automated cell counter. Blood glucose levels were determined by collecting whole-blood from tail vein into heparinised tubes (Abraxis), 120-140 μL of whole-blood to be loaded onto a comprehensive diagnostic profile reagent rotor (Abraxis) and run on a VetScan VS2 Chemistry Analyzer (Abraxis: 500-7123).
Oil Red O staining for lipids was carried out on liver tissue in OCT was snap-frozen in liquid N2 and cryosectioned (15 μM). Sections were equilibrated to RT for 10 min and then stained with 0.5% Oil Red O solution (w/v, in isopropanol, Sigma, O1391) for 5 min, rinsed in tap water and counterstained with Mayer's hematoxylin for 30 s. Then sections were again rinsed in tap water for 30 min and coverslips mounted. Images were acquired on Zeiss AxioScan Z.1 and ImageJ quantification of Oil-red stain area relative to background tissue area performed for 3 fields per section.
To understand what effects are associated with the treatment with NMT inhibitors in vivo, we analysed different parameters in the same cohort of old mice described in FIG. 17A. First, we looked into the accumulation of lipid droplets in the liver using Oil Red O staining. These are an indication of hepatic steatosis, and importantly, elimination of senescent cells has been previously shown capable to reduce steatosis.
Other pathological change observed in old mice is the presence of increased levels of glucose in blood. This can be related with diabetes or metabolic disease. Importantly, both pathologies have been associated with the presence of senescent cells.

[2] = High fat diet model of nonalcoholic steatohepatitis (NASH); type: in vivo, male C57/BL6 mice; conditions: HFD mice, 10 mg/kg
Description: For high-fat diet experiments C57BL/6J male mice aged 8-weeks old were placed on Chow or high-fat diet (kcal 40% fat (non-trans-fat Primex Shortening), kcal 20% fructose, 2% cholesterol, D1602230i) for 4 weeks prior to first round of injections. […] Blood was collected prior to each round of injection for physiological assessments. Mice were allowed to rest 4 weeks prior to being culled and organs collected for freezing in OCT, paraffin embedding, blood collection for physiological measurements and tissue snap-freezing for RNA extraction.
as §1
Immunohistochemical staining—Slides were deparaffinised by washing slides twice in Histoclear™ for 5 min each, followed by 5 min washes in decreasing concentrations of ethanol with 100%, 75%, 50% & 25% ethanol washes before a final wash 5 min in dH2O. Heat induced epitope retrieval (HIER) was then performed in pressure cooker for 20 min using either antigen-unmasking solution, Citrate-based at pH 6.0 (VectorLab H-3300-250) or antigen-unmasking solution, Tris-based at pH 9.0 (VectorLab H-3301-250) depending on antibody manufacturers' instructions. Following HIER, slides were cooled on ice for 10 min and then washed in PBS for 5 min. For intracellular stains, sections were permeabilized with 0.2% Triton X-100 in PBS for 10 min and washed twice in PBS for 5 min. For NRAS staining in liver slides were washed in 0.1% H2O2 in PBS for 15 min followed by washing twice in PBS to reduce endogenous peroxide activity. Sections were marked using hydrophobic pen and Non-specific antigen binding was blocked by incubating slides with CAS-Block™ Histochemical reagent (ThermoFisher, 008120) for 30-45 min in a humidified chamber. Slides were then incubated with primary antibody overnight in a humidified chamber at 4° C. For experiments utilising p21 antibody, slides were incubated with primary p21 antibody (p21 [EPR18021], Abcam, 1:200) overnight in a humidified chamber at 4° C. Slides were washed twice in PBS for 5 min and incubated with secondary antibody SignalStain® Boost IHC detection reagent Mouse/Rabbit, HRP (Cell Signalling Technology, 8125) for 30-45 min. Next, slides were washed twice in PBS for 5 min and incubated for 2-10 min with SignalStain® DAB substrate kit (CST, 8059) to detect HRP signal. Signal development was stopped when visible positive cells could be detected on a microscope, by washing slides in dH2O. To counterstain DAB signal, slides were incubated for 30 s in Modified Mayer's Hematoxylin (Lillie's Modification) (DAKO), washed in dH2O, and incubated for 30 s in 0.05% Ammonium solution (PBS) followed by washing in dH2O. Prior to mounting coverslips with VectaMount aqueous mounting media (VectorLab, H-5501-60) slides were dehydrated by washing 1 min in 75% Ethanol, 5 min in 100% Ethanol and 5 min in Histoclear®.
Oil Red O staining for lipids was carried out on liver tissue in OCT was snap-frozen in liquid N2 and cryosectioned (15 μM). Sections were equilibrated to RT for 10 min and then stained with 0.5% Oil Red O solution (w/v, in isopropanol, Sigma, O1391) for 5 min, rinsed in tap water and counterstained with Mayer's hematoxylin for 30 s. Then sections were again rinsed in tap water for 30 min and coverslips mounted. Images were acquired on Zeiss AxioScan Z.1 and ImageJ quantification of Oil-red stain area relative to background tissue area performed for 3 fields per section. […]

Cc1c(NS(=O)(=O)c2c(Cl)cc(-c3ccnc(N4CCNCC4)c3)cc2Cl)c(CC(C)C)nn1C [Compound 2]
Glucose in blood, fasted mice ([1]; old mice fasted, FIG. 18C): lower levels of glucose | Glucose in blood, fed mice ([1]; old mice kept fed, FIG. 18B): lower levels of glucose | Accumulation of lipids in the liver (Oil Red O staining) ([1]; ~26 month female mice, FIG. 18A): reduced accumulation of lipids in the liver | Liver fibrosis (Sirius red staining) ([2]; FIG. 23): normalized | p21^CIP1-positive hepatocytes in the liver ([2]; FIG. 24A): reduction of p21^CIP1-positive hepatocytes | Lipid accumulation (steatosis) in liver ([2]; FIG. 24D): reduction in this lipid accumulation | Transcriptional signatures of collagen formation in liver ([2]; GSEA, FIG. 24E): downregulation | Transcriptional signature of Fridman senescence in liver ([2]; GSEA, FIGS. 24B-C): downregulation | Transcriptional signature of senescence-associated secretory phenotype in liver ([2]; GSEA, FIGS. 24B-C): downregulation | Col1a1 mRNA in liver ([2]; RT-qPCR, FIGS. 24F-G): lower | Col4a1 mRNA in liver ([2]; RT-qPCR, FIGS. 24F-G): lower | ALP in blood ([2]; before 3rd round, FIGS. 22B-D): normalised | ALT in blood ([2]; before 3rd round, FIGS. 22B-D): normalised | Albumin in blood ([2]; before 3rd round, FIGS. 22B-D): normalised | suPAR in blood ([2]; before 3rd round, versus vehicle, FIG. 22A): lower levels of suPAR
